Assay results: patent publication US12162876B2, “Indazole kinase inhibitor and use thereof” (Tarapeutics Science Inc., priority 2018, dated 2024)
Read-outs that look alike come from different tables or passages of the source.

Legend:
TEL-cKIT-BaF3 = experiment: Cell proliferation (CCK-8, 72 h), TEL-cKIT-BaF3; assay type: cell-based; conditions: Mus musculus, BaF3 expressing wild-type C-KIT kinase
Source text: (§1) In this example, human gastrointestinal stromal tumor cell line GIST-T1 (expressing wild-type C-KIT gene) (purchased from Cosmo Bio Co., Ltd. (Japan)), human gastrointestinal stromal tumor cell line GIST-T1-T670I (expressing C-KIT-T670I mutant gene) (constructed by our laboratory with CRISPR technology), mouse […] BaF3 (purchased from ATCC) were used. In addition, in this Example, mouse Tel-cKit-BaF3 (stably expressing C-KIT wild-type kinase), mouse Tel-cKit/T670I-BaF3 (stably expressing cKIT T670I mutant kinase), mouse Tel-PDGFRα-BaF3 (stably expressing PDGFRα kinase), mouse Tel-PDGFRβ-BaF3 (stably expressing PDGFRβ kinase), mouse Tel-VEGFR2-BaF3 (stably expressing VEGFR2 kinase), mouse Tel-FLT3-BaF3 (stably expressing FLT3 kinase) were also used. The above cell lines were all constructed by our laboratory. The construction method was as follows: the human C-KIT, C-KIT T670I, PDGFRα, PDGFRβ, VEGFR2, FLT3 kinase region sequences were amplified by PCR respectively and inserted into MSCV-Puro vector (purchased from Clontech) with N-terminal TEL fragment and/or NPM fragment and/or TPR fragment respectively, which was stably transferred into mouse BaF3 cells by retroviral method, and IL-3 growth factor was removed, and finally the cell lines in which protein was transferred depending on C-KIT, C-KIT/T670I, PDGFRα, PDGFRβ, VEGFR2, FLT3 were obtained. The GIST-T1-T670I (expressing C-KIT-T670I mutant gene) cell line was constructed by our laboratory. The construction method was as follows: the sgRNA targeting near the T670 site of the KIT gene was designed by the CRISPR design tool of the Zhang Feng Laboratory of the Massachusetts Institute of Technology (URL: crispr.mit.edu) and cloned into pSpCas9(BB)-2A-Puro vector (Addgene, USA); the obtained vector and a single-stranded oligonucleotide with T670I mutation near the T670 site were co-transfected into the cells, and after antibiotic selection, they were diluted and cultured in a single cell in a 96-well plate; the T670 site of the cells was sequenced and verified by the Sanger sequencing method.

TEL-PDGFRα-BaF3 = experiment: Cell proliferation (CCK-8, 72 h), TEL-PDGFRα-BaF3; assay type: cell-based; conditions: Mus musculus, BaF3 expressing PDGFRα kinase
Source text: as §1

BaF3 = experiment: Cell proliferation (CCK-8, 72 h), parental BaF3; assay type: cell-based; conditions: Mus musculus, parental BaF3 cells
Source text: as §1

TEL-cKIT/T670I-BaF3 [1] = experiment: Cell proliferation (CCK-8, 72 h), TEL-cKIT/T670I-BaF3; assay type: cell-based; conditions: Mus musculus, read-out: GI50 TEL-cKIT/T670I-BaF3
Source text: as §1

TEL-VEGFR2-BaF3 = experiment: Cell proliferation (CCK-8, 72 h), TEL-VEGFR2-BaF3; assay type: cell-based; conditions: Mus musculus, BaF3 expressing VEGFR2 kinase
Source text: as §1

TEL-PDGFRβ-BaF3 = experiment: Cell proliferation (CCK-8, 72 h), TEL-PDGFRβ-BaF3; assay type: cell-based; conditions: Mus musculus, BaF3 expressing PDGFRβ kinase
Source text: as §1

TEL-FLT3-BaF3 = experiment: Cell proliferation (CCK-8, 72 h), TEL-FLT3-BaF3; assay type: cell-based; conditions: Mus musculus, BaF3 expressing FLT3 kinase
Source text: as §1

GIST-T1 = experiment: Cell proliferation (CCK-8, 72 h), GIST-T1; assay type: cell-based; conditions: Homo sapiens, GISTT1, GIST-T1 (wild-type C-KIT gene)
Source text: as §1

GIST-T1-T670I [2] = experiment: Cell proliferation (CCK-8, 72 h), GIST-T1-T670I; assay type: cell-based; conditions: Homo sapiens, GIST-T1-T670I (C-KIT-T670I mutant, Imatinib-resistant)
Source text: as §1

TEL-cKIT/T670I-BaF3 [3] = experiment: TEL-cKIT/T670I-BaF3 cell tumor transplantation mouse model; assay type: in vivo
Description: (§2) (1) 4-6 weeks old Bal b/c female mice were purchased from Beijing Weitong Lihua Experimental Animal Co., Ltd. and were reared in SPF-level laboratories. Drinking water and litter were sterilized by autoclaving. All operations on mice were performed under sterile conditions.
(§3) (2) On day 0, about 5×10^6 TEL-cKIT/T670I-BaF3 or 5×10^6 GIST-T1-T670I cells were injected subcutaneously on the left back of all mice, respectively.
(§4) (3) For the mouse model of TEL-cKIT/T670I-BaF3, starting from day 6, the corresponding mice were orally administered every day methyl cellulose (HKI) vehicle (5 mice); […]; sunitinib (purchased from MedChemExpress, China) at a dose of 40 mg/kg mouse weight (5 mice). For the mouse model of GIST-T1-T670I, starting from day 15, the corresponding mice were orally administered every day methyl cellulose (HKI) vehicle (5 mice); Compound 9 at a dose of 20 mg/kg, 30 mg/kg, 40 mg/kg (5 mice each); sunitinib at a dose of 40 mg/kg mouse weight (5 mice).
(§5) (4) Starting from day 6 (the mouse model of TEL-cKIT/T670I-BaF3) and day 15 (the mouse model of GIST-T1-T670I), the length/width of the subcutaneous tumors was measured with a vernier caliper every day, the body weight of the mice was recorded every day, and the effect of compound 9 on the body weight of the mice was determined respectively.
(§6) (5) The growth trend of […] tumors was calculated, with the calculation method of tumor volume: length×width×width/2 mm^3.

GIST-T1-T670I [4] = experiment: GIST-T1-T670I cell tumor transplantation mouse model; assay type: in vivo; conditions: for tumor inhibition rate: 40 mg/kg oral daily
Description: as §2, §3, §4, §5, §6

[5] = BaF3 expressing cKIT T670I mutant kinase, 72 h, CCK-8

Structure (SMILES) | GI50 (TEL-cKIT-BaF3) [nM] | GI50 (TEL-PDGFRα-BaF3) [nM] | GI50 (TEL-cKIT/T670I-BaF3 [1]; [5]) [nM] | GI50 (TEL-VEGFR2-BaF3) [nM] | GI50 (TEL-PDGFRβ-BaF3) [nM] | GI50 (TEL-FLT3-BaF3) [nM] | GI50 (BaF3) [nM] | GI50 (GIST-T1) [nM] | GI50 (GIST-T1-T670I [2]) [nM] | tumor inhibition rate (TEL-cKIT/T670I-BaF3 [3]; 40 mg/kg oral daily, with increasing days of treatment) [%] | tumor inhibition rate (TEL-cKIT/T670I-BaF3 [3]; 100 mg/kg oral daily, day 11 after administration) [%] | effect on the body weight of mice (TEL-cKIT/T670I-BaF3 [3]; oral daily) | GI50 (TEL-cKIT/T670I-BaF3 [1]; BaF3, 72 h) [nM] | tumor inhibition rate (GIST-T1-T670I [4]; day 28 after administration) [%] | tumor inhibition rate (GIST-T1-T670I [4]; with increasing days of treatment) [%] | effect on the body weight of mice (GIST-T1-T670I [4]; oral daily)
CC(=O)Nc1ncc(-c2ccc3c(/C=C/c4ccccn4)n[nH]c3c2)s1 [Compound 5, (E)-N-(5-(3-(2-(pyridin-2-yl)vinyl)-1H-indazol-6-yl)thiazol-2-yl)acetamide] | 425 | 2 | 9 | 38 | 11 | < 1 | 2920 | – | – | – | – | – | – | – | – | –
Cc1nc(NC(=O)Cc2cccc3ccccc23)sc1-c1ccc2c(/C=C/c3ccccn3)n[nH]c2c1 [Compound 7, (E)-N-(4-methyl-5-(3-(2-(pyridin-2-yl)vinyl)-1H-indazol-6-yl)thiazol-2-yl)-2-(naphthalene-1-yl)acetamide] | 191 | 2.9 | 94 | 15 | – | 3 | 3690 | 32 | 65 | – | – | – | – | – | – | –
Cc1nc(NC(=O)CN2CCN(C)CC2)sc1-c1ccc2c(/C=C/c3ccccn3)n[nH]c2c1 [Compound 9, (E)-N-(4-methyl-5-(3-(2-(pyridin-2-yl)vinyl)-1H-indazol-6-yl)thiazol-2-yl)-2-(4-methylpiperazin-1-yl)acetamide] | 923 | – | – | 180 | – | 1 | 1400 | 19 | 39 | ≤ 80 | 100 | no effect | 9 | 84.3 | ≤ 80 | no effect
Cc1nc(NC(=O)CC2CCNCC2)sc1-c1ccc2c(/C=C/c3ccccn3)n[nH]c2c1 [Compound 11, (E)-N-(4-methyl-5-(3-(2-(pyridin-2-yl)vinyl)-1H-indazol-6-yl)thiazol-2-yl)-2-(piperidin-4-yl)acetamide] | 480 | 1.3 | 38 | 350 | 3.9 | 48 | 980 | – | – | – | – | – | – | – | – | –
Cc1ccc(NC(=O)c2ccc(CN3CCN(C)CC3)cc2)cc1Nc1nccc(-c2cccnc2)n1 [Imaitnib, Imatinib, reference compound] | – | – | – | – | – | – | – | 10 | > 10000 | – | – | – | – | – | – | –

Now from value to compound, other results behind:

GI50 (TEL-cKIT-BaF3) [nM] | GI50 (TEL-PDGFRα-BaF3) [nM] | GI50 (TEL-cKIT/T670I-BaF3 [1]; [5]) [nM] | GI50 (TEL-VEGFR2-BaF3) [nM] | GI50 (TEL-PDGFRβ-BaF3) [nM] | GI50 (TEL-FLT3-BaF3) [nM] | Structure (SMILES) | GI50 (BaF3) [nM] | GI50 (GIST-T1) [nM] | GI50 (GIST-T1-T670I [2]) [nM] | tumor inhibition rate (TEL-cKIT/T670I-BaF3 [3]; 40 mg/kg oral daily, with increasing days of treatment) [%] | tumor inhibition rate (TEL-cKIT/T670I-BaF3 [3]; 100 mg/kg oral daily, day 11 after administration) [%] | effect on the body weight of mice (TEL-cKIT/T670I-BaF3 [3]; oral daily) | GI50 (TEL-cKIT/T670I-BaF3 [1]; BaF3, 72 h) [nM] | tumor inhibition rate (GIST-T1-T670I [4]; day 28 after administration) [%] | tumor inhibition rate (GIST-T1-T670I [4]; with increasing days of treatment) [%] | effect on the body weight of mice (GIST-T1-T670I [4]; oral daily)
24 | 1 | 12 | 5 | 3 | 2 | Cc1nc(NC(=O)c2cccc(C(F)(F)F)c2)sc1-c1ccc2c(/C=C/c3ccccn3)n[nH]c2c1 [Compound 6, (E)-N-(4-methyl-5-(3-(2-(pyridin-2-yl)vinyl)-1H-indazol-6-yl)thiazol-2-yl)-3-(trifluoromethyl)benzamide] | > 10000 | – | – | – | – | – | – | – | – | –
137 | 7.4 | 85 | 42 | 18 | 1.6 | Cc1nc(NC(=O)C2CCNCC2)sc1-c1ccc2c(/C=C/c3ccccn3)n[nH]c2c1 [Compound 14, (E)-N-(4-methyl-5-(3-(2-(pyridin-2-yl)vinyl)-1H-indazol-6-yl)thiazol-2-yl) piperidin-4-carboxamide] | 3100 | – | – | – | – | – | – | – | – | –
25 | < 1 | 38 | 4 | < 1 | 2 | Cc1nc(NC(=O)Nc2cccc(C(F)(F)F)c2)sc1-c1ccc2c(/C=C/c3ccccn3)n[nH]c2c1 [Compound 29, (E)-1-(4-methyl-5-(3-(2-(pyridin-2-yl)vinyl)-1H-indazol-6-yl)thiazol-2-yl)-3-(3-(trifluoromethyl)phenyl)urea] | 105 | – | – | – | – | – | – | – | – | –
47 | 1 | 8 | 12 | 1 | 0.3 | CC(=O)Nc1nc(C)c(-c2ccc3c(/C=C/c4ccccn4)n[nH]c3c2)s1 [Compound 30, (E)-N-(4-methyl-5-(3-(2-(pyridin-2-yl)vinyl)-1H-indazol-6-yl)thiazol-2-yl) acetamide] | 1460 | – | – | – | – | – | – | – | – | –
